Patent publication US9962378B2, “ROS1 inhibitor and its use” (Macau University of Science and Technology, priority 2015, dated 2018)

Key:
Format in all cases: cell-based
[1] = system: HCC78 NSCLC cells (with ROS1 rearrangement); experiment: MTT cytotoxicity assay on HCC78 NSCLC cells; conditions: Homo sapiens, 72 h, mean±SEM, read-out: IC50 (cell viability, MTT)
Protocol: (§1) HCC78 cells and CCD19-Lu cells were obtained from the American Type Culture Collection and cultured in environment of 5% CO2 at 37° C. in RPMI-1640 (GIBCO, Lift Technologies) medium supplemented with 10% fetal bovine serum (FBS) (GIBCO, Lift Technologies), 100 units/mL penicillin, and 100 μg/mL streptomycin (GIBCO, Lift Technologies), crizotinib was purchased from Selleck Chemicals.
(§2) For MTT assay, 3000 cells were seeded on 96-well plates, then treated with DMSO or various concentrations of the compound of Formula (V) for 72 h. At the end of the incubation, 10 μL of MTT (5 mg/mL; Sigma) was added into each well, and the plates were incubated for an additional 4 hours, then the dark blue crystals were dissolved in 100 μL of the resolved solution (10% SDS and 0.1 mM HCL). Finally, the absorbance was measured by a microplate reader at 570 nm (Tecan, Morrisville, N.C., USA). The cell viability was calculated relative to untreated controls, with results based on at least three independent experiments.

[2] = system: normal lung cells (CCD19-Lu); experiment: MTT cytotoxicity assay on normal lung cells; conditions: Homo sapiens, CCD 19Lu, 72 h, 0-20 μM, read-out: IC50 (cell viability, MTT)
Protocol: as §1, §2

HCC78 cells [3] = experiment: Annexin-V FITC/PI flow cytometry apoptosis assay; conditions: HCC78 cells, 2.5, 5 and 10 μM, 24 h, compared to control group; concentration-dependent
Protocol: HCC78 cells (1.0×10^5 cells/well) were allowed to attach in a 6-well plates for 24 h, cells were treated with the compound of Formula (V) for 24 h. Subsequently, cells were trypsinized, washed with PBS and stained with 100 μL binding buffer containing 2 μL Annexin-V FITC and 4 μL propidine iodide (PI) incubated in the dark at room temperature for 15 min, before further addition of 400 μL of 1× Annexin-binding buffer. The stained cells were analyzed quantitatively using a Flow Cytometer (BD Biosciences, San Jose, Calif., USA). Data were analyzed by Flow Jo software.

HCC78 cells [4] = experiment: colony formation assay; conditions: HCC78 cells, 1.25, 2.5 and 5 μM, 10 days; dose-dependent
Protocol: Still further, inhibitory effect of the compound of Formula (V) on the colony formation in HCC78 cells has been tested to provide further evidence that the compound of Formula (V) inhibits the formation of colonies of cancerous cell to an exceptional degree, too.
HCC78 cells were seeded on a six-well plate at a density of 500 cells per well. The cells were exposed to various concentrations of the compound of Formula (V). After 10 days, the colonies were fixed with 4% paraformaldehyde and stained with a 0.5% (0.5% w/v) crystal violet solutions, the number of colonies >50 was counted under a dissecting microscope and surviving fractions were calculated.

[5] = system: ROS1 phosphorylation and ROS1 downstream signaling molecules pERK1/2, pSTAT3 and pAKT; experiment: western blot of ROS1 phosphorylation and downstream signaling; conditions: HCC78 cells, 2.5, 5 and 10 μM, dose-dependent
Protocol: Additionally, the suppression of ROS1 phosphorylation as well as its downstream signaling pathway by the compound of Formula (V) has been studied.
Cells exposed to different concentrations of compound of Formula (V), namely 2.5, 5 and 10 μM or 2.5 μM crizotinib as described above and a control group were washed twice with cold PBS then lysed in RIPA lysis buffer containing protease and phosphatase inhibitors, protein concentration of the cell lysates were measured using the Bio-Rad protein Assay kit (Bio-Rad, Philadelphia, Pa., USA). After equalizing the protein concentrations of the samples, 5× laemmli buffer was added and boiled at 100° C. for 5 min. Equal amounts of protein (20-40 μg per lane) were separated with a 10% SDS-PAGE gel, then the separated proteins were transferred to a nitrocellulose (NC) membrane, which was then exposed to 5% non-fat dry milk in TBS containing 0.1% Tween 20 (0.1% TBST) for 1 hour at room temperature with constant agitation, followed by overnight incubation at 4° C. with primary antibodies, after washing 3 times by TBST, the membranes were incubated with secondary rabbit or mouse fluorescent antibodies, the signal intensity of the membranes was detected by an LI-COR Odessy scanner (Belfast, Me., USA). Antibodies against GAPDH, p-AKT, p-ROS1, ROS1, p-ERK, ERK, p-STAT3, STAT3 were purchased from Cell signaling Technology. […]

CCN(CC)CCNC(=O)c1cc2c(=O)n(C)c3cc(Cl)ccc3c2s1 [compound of Formula (V)]
IC50 [1]: 6.35 ± 1.44 µM
IC50 [2]: > 20 µM
induction of apoptosis (HCC78 cells [3]): induced significant levels of cell apoptosis compared to the control group
formation of HCC78 cell colonies (HCC78 cells [4]): advantageously inhibited the formation of HCC78 cell colonies
ROS1 downstream signaling molecules pERK1/2, pSTAT3 and pAKT [5]: inhibition
ROS1 phosphorylation [5]: inhibition of ROS1 phosphorylation
